Results on 3 compounds are retold here after ChEMBL document CHEMBL1147820, “Enhanced pharmacokinetic properties of 1,4-benzodiazepine-2,5-dione antagonists of the HDM2-p53 protein-protein interaction through structure-based drug design” (Bioorg Med Chem Lett, 2006).

A short description of data set [1]: in vitro. Conditions: human, Caco-2.
A short description of data set [2]: in vitro. To be noted: human, Caco-2. This is another data set of the same source.
Data set [3] in a line: Bioavailability in mouse. The class given is ADME, organism-based. To be noted: in vivo.
The nature of data set [4]: Half life in mouse at 40 mg/kg, po. The class given is ADME, organism-based. Further details: dose 40 mg/kg, route oral. To be noted: in vivo.
The nature of data set [5]: Tmax in mouse at 40 mg/kg, po. Further details: dose 40 mg/kg, route oral. The class given is ADME, organism-based. To be noted: in vivo.
The nature of data set [6]: Clearance in mouse at 5 mg/kg, iv. It is filed as ADME, organism-based. Further details: dose 5 mg/kg, route intravenous. Conditions: in vivo.
A short description of data set [7]: Half life in mouse at 5 mg/kg, iv. It is filed as ADME, organism-based. Further details: dose 5 mg/kg, route intravenous. Conditions: in vivo.
Data set [8] in a line: Volume of distribution in mouse at 5 mg/kg, iv. It is filed as ADME, organism-based. Further details: dose 5 mg/kg, route intravenous. To be noted: in vivo, read-out: Vdss.
Data set [9] is described as follows: Cmax in mouse at 40 mg/kg, po. To be noted: in vivo. Further details: dose 40 mg/kg, route oral. It is filed as ADME, organism-based.

SMILES strings stand for the structures.

`CC#Cc1ccc2c(c1)C(=O)N([C@H](C)c1ccc(Cl)cc1)[C@@H](c1ccc(Cl)cc1)C(=O)N2CCCCC(=O)O`: in “in vitro [1]”, the Papp B→A was found to be 9.1 ×10⁻⁶ cm/s. This compound came in with an apical-to-basolateral permeability (Papp A→B) in the data set “in vitro [2]” of 19.9 ×10⁻⁶ cm/s.

As for `C[C@H](c1ccc(Cl)cc1)N1C(=O)c2cc(I)ccc2N(CCCCC(=O)O)C(=O)[C@@H]1c1ccc(Cl)cc1`, the bioavailability in data set [3] came to 100%. For the same compound, the half-life in data set [4] is 2.5 h; in data set [7], 3.1 h. Moreover, the Papp B→A in the data set “in vitro [1]” came out at 13 ×10⁻⁶ cm/s. Also, in [5], the Tmax was determined as 6 h. In data set [6], this compound came in with a clearance of 13.2 mL/min/kg. Also, the Vd in data set [8] came out at 3 L/kg. The same compound registered a Papp A→B in the data set “in vitro [2]” of 7.34 ×10⁻⁶ cm/s. In [9], this compound gave a Cmax of 6.3 µM.

`C#Cc1ccc2c(c1)C(=O)N([C@H](C)c1ccc(Cl)cc1)[C@@H](c1ccc(Cl)cc1)C(=O)N2CCCCC(=O)O` had a Papp B→A in “in vitro [1]” of 16.1 ×10⁻⁶ cm/s. The compound also returned an apical-to-basolateral permeability (Papp A→B) in the data set “in vitro [2]” of 20.9 ×10⁻⁶ cm/s.
